Experimental data: patent US11306071B2, “Heterocyclic compounds as adenosine antagonists” (Nuvation Bio Inc., priority 2019, dated 2022)

What was measured:
[1] = biological target: adenosine A2a (human) membrane (Homo sapiens (Human), UniProt P29274); assay: A2A adenosine receptor radioligand binding assay ([3H] CGS-21680); details: radioligand [3H] CGS-21680 6 nM
Method: A second A2A adenosine receptor radioligand binding assay protocol was used. The protocol used adenosine A2a (human) membrane (PerkinElmer RBHA2AM400UA) at a concentration of 5 μg/well/100 μl and the radioligand [3H] CGS-21680 (Cat No. PerkinElmer-NET1021250UC) at a final concentration of 6 nM. Testing compounds were diluted with DMSO to make 8-point 4-fold serial dilution, starting at 0.2 mM. CGS-15943 was the reference compound. 1 μl of compounds/high control/low control was transferred to the assay plate according to a plate map, followed by 100 μl of membrane stocks and 100 μl of radioligand, in assay buffer (50 mM Tris-HCl, 10 mM MgCl2, 1 mM EDTA, pH 7.4). The plate was sealed and incubated at RT for 2 hours. Unifilter-96 GF/C filter plates (Perkin Elmer Cat #6005174) were soaked with 50 μl of 0.3% PEI per well for at least 0.5 hour at room temperature. When the binding assays were completed, the reaction mixtures were filtered through GF/C plates using Perkin Elmer Filtermate Harvester, and each plate washed 4 times with cold wash buffer (50 mM Tris-HCl, 154 mM NaCl, pH 7.4). The filter plates were dried for 1 hour at 50 degrees. After drying, the bottom of the filter plate wells was sealed, 50 μl of Perkin Elmer Microscint 20 cocktail was added, and the top of the filter plate was sealed. ^3H trapped on the filter was counted using Perkin Elmer MicroBeta2 Reader. The data were analyzed with GraphPad Prism 5 to obtain binding IC50 values. The “Inhibition [% Control]” was calculated using the equation: % Inh=(1-Background subtracted Assay value/Background subtracted HC value)*100, where HC is high control.

[2] = biological target: HEK-293 cells expressing human recombinant adenosine A2A receptor (Homo sapiens (Human), UniProt P29274); assay: cAMP assay (Assay 2), A2A receptor; type: cell-based
Sequence of HEK-293 cells expressing human recombinant adenosine A2A receptor (P29274 whole entry): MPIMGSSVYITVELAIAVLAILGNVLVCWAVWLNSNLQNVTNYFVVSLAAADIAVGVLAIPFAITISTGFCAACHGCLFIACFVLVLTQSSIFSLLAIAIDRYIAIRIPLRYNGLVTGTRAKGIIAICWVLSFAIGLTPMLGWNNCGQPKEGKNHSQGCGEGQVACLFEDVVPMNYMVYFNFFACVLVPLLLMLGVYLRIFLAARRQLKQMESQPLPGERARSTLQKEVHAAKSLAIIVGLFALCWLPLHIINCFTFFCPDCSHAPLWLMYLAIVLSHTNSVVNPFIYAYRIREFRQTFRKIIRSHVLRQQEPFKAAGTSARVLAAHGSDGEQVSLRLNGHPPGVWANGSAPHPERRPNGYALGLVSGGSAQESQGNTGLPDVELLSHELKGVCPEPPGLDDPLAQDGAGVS
Method: (§1) The functional activity of compounds was tested using Assay 2, below, to detect the presence of cAMP. Assay 1 is an alternative assay for this purpose. Activation of G-protein coupled receptors (such as A2A) results in activation of adenylyl cyclase which converts ATP into cAMP which is used as a downstream signaling molecule. Therefore, molecules which act as GPCR (or specifically A2A receptor) antagonists cause a decrease in intracellular cAMP concentration.
(§2) Assay 2 (Table B2): This assay used HEK-293 cells expressing human recombinant adenosine A2A receptor (or, alternatively, A1 receptor) that were grown prior to the test in media without antibiotic. 100 nL of test articles at 100x of final concentration were transferred to assay plate by Echo. Cells were washed twice with 5 mL of PBS and 10 μL of cells were mixed with 5 mL PBS. After aspirating the PBS and adding 1.5 mL versine, cells were incubated at 37° C. for 2-5 min. After centrifugation, 4 mL of medium was added and adjusted cell density to 5,000 cells/well with Stimulation Buffer. 10 μL of cells were aliquoted to the assay plate, centrifuged at 1000 rpm for 1 minute, and incubated for 60 minutes at room temperature. 5 μL 4× Eu-cAMP tracer solution and 5 μL 4× Ulight™-anti-cAMP solution were added to assay plate, followed by centrifugation and 60-minute incubation at room temperature. Plates were read on EnVision.

[3] = biological target: adenosine A1 (human) membrane (Homo sapiens (Human), UniProt P30542); assay: A1 adenosine receptor radioligand binding assay ([3H] DPCPX); details: 200 nM compound; radioligand [3H] DPCPX 1 nM
Sequence of adenosine A1 (human) membrane (P30542 whole entry): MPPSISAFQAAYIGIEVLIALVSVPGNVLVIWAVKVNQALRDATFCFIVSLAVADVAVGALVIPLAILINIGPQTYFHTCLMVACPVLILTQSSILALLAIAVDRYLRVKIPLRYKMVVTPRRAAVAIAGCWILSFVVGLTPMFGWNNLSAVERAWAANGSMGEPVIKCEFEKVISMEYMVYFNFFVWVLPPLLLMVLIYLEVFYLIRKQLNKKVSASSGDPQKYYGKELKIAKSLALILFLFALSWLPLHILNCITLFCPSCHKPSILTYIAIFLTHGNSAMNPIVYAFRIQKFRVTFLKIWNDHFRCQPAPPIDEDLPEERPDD
Method: A second A1 adenosine receptor radioligand binding assay protocol was used. The protocol used adenosine A1 (human) membrane (PerkinElmer ES-010-M400UA) at a concentration of 2.5 μg/well/100 μl and the radioligand [3H] DPCPX (Cat No. PerkinElmer-NET974250UC) at a final concentration of 1 nM. Testing compounds were tested at a final concentration of 200 nM. CGS-15943, the reference compound, was tested in an 8-point 4-fold serial dilution, starting at a top concentration of 1 μM. 1 μl of compounds/high control/low control was transferred to the assay plate according to a plate map, followed by 100 μl of membrane stocks and 100 μl of radioligand, in assay buffer (25 mM HEPES, 5 mM MgCl2, 1 mM CaCl2, 100 mM NaCl, pH 7.4). The plate was sealed and incubated at RT for 1 hour. Unifilter-96 GF/C filter plates (Perkin Elmer Cat #6005174) were soaked with 50 μl of 0.3% PEI per well for at least 0.5 hour at room temperature. When the binding assays were completed, the reaction mixtures were filtered through GF/C plates using Perkin Elmer Filtermate Harvester, and each plate washed 4 times with cold wash buffer (25 mM HEPES, 5 mM MgCl2, 1 mM CaCl2, 100 mM NaCl, pH 7.4). The filter plates were dried for 1 hour at 50 degrees. After drying, the bottom of the filter plate wells was sealed, 50 μl of Perkin Elmer Microscint 20 cocktail was added, and the top of the filter plate was sealed. ^3H trapped on the filter was counted using Perkin Elmer MicroBeta2 Reader. The data were analyzed with GraphPad Prism 5 to obtain binding IC50 values for the reference compound. The “Inhibition [% Control]” was calculated using the equation: % Inh=(1-Background subtracted Assay value/Background subtracted HC value)*100, where HC is high control.

[4] = biological target: HEK-293 cells expressing human recombinant adenosine A1 receptor (Homo sapiens (Human), UniProt P30542); assay: cAMP assay (Assay 2), A1 receptor; type: cell-based
Sequence of HEK-293 cells expressing human recombinant adenosine A1 receptor (P30542 whole entry): as above
Method: as §1, §2

Sequence of adenosine A2a (human) membrane (P29274 whole entry): as the sequence (P29274 whole entry) above

SMILES	IC50 [1] [nM]	IC50 [2] [nM]	inhibition at 0.2 µM [3] [%]	IC50 [4] [nM]
C[C@@H](NC(=O)c1nc(-c2ccc3ncccc3c2)c(-c2ccccc2)nc1N)c1ccccn1 [compound 76, (R)-3-amino-5-phenyl-N-(1-(pyridin-2-yl)ethyl)-6-(quinolin-6-yl)pyrazine-2-carboxamide]	3.4	24	45	804
C[C@@H](NC(=O)c1nc(-c2ccc3ncccc3c2)c(-c2ccccc2)nc1N)c1ncccn1 [Compound No. 125, (R)-3-amino-5-phenyl-N-(1-(pyrimidin-2-yl)ethyl)-6-(quinolin-6-yl)pyrazine-2-carboxamide]	1.2	27	–	–
C[C@H](NC(=O)c1nc(-c2ccc3ncccc3c2)c(-c2ccccc2)nc1N)c1ncccn1 [Compound No. 126, (S)-3-amino-5-phenyl-N-(1-(pyrimidin-2-yl)ethyl)-6-(quinolin-6-yl)pyrazine-2-carboxamide]	1.8	110	41	–
C[C@@H](NC(=O)c1nc(-c2cc(Cl)c3[nH]ncc3c2)c(-c2ccc(F)cc2)nc1N)c1ccccn1 [Compound No. 104, (R)-3-amino-6-(7-chloro-1H-indazol-5-yl)-5-(4-fluorophenyl)-N-(1-(pyridin-2-yl)ethyl)pyrazine-2-carboxamide]	0.9	76	68	117
N#Cc1cccc(-c2nc(N)cnc2-c2cc(Cl)c3[nH]ncc3c2)c1 [Compound No. 2-7, 3-(6-amino-3-(7-chloro-1H-indazol-5-yl)pyrazin-2-yl)benzonitrile]	–	130	81	–
C[C@@H](NC(=O)c1nc(-c2cc(Cl)c3ncccc3c2)c(-c2ccn(C)n2)nc1N)c1ccccn1 [Compound No. 100, (R)-3-amino-6-(8-chloroquinolin-6-yl)-5-(1-methyl-1H-pyrazol-3-yl)-N-(1-(pyridin-2-yl)ethyl)pyrazine-2-carboxamide]	1.6	28	70	22
CC(C)(NC(=O)c1nc(-c2ccc3ncccc3c2)c(-c2ccccc2)nc1N)c1ccccn1 [compound 108, 3-amino-5-phenyl-N-(2-(pyridin-2-yl)propan-2-yl)-6-(quinolin-6-yl)pyrazine-2-carboxamide]	1.3	55	47	326
C[C@@H](NC(=O)c1nc(-c2cc(Cl)c3ncccc3c2)c(-c2ccc(F)cc2)nc1N)c1ccccn1 [compound 106, (R)-3-amino-6-(8-chloroquinolin-6-yl)-5-(4-fluorophenyl)-N-(1-(pyridin-2-yl)ethyl)pyrazine-2-carboxamide]	–	165	34	–
CC(NC(=O)c1nc(-c2ccc3ncccc3c2)c(-c2ccccc2)nc1N)c1ccccn1 (stereo not shown) [compound 73, 3-amino-5-phenyl-N-(1-(pyridin-2-yl)ethyl)-6-(quinolin-6-yl)pyrazine-2-carboxamide]	3.1	53	61	403
Nc1nc(-c2ccc(F)cc2)c(-c2cc(Cl)c3ncccc3c2)nc1C(=O)NCCC1CCOCC1 [Compound No. 101, 3-amino-6-(8-chloroquinolin-6-yl)-5-(4-fluorophenyl)-N-(2-(tetrahydro-2H-pyran-4-yl)ethyl)pyrazine-2-carboxamide]	–	238	66	–

The remaining lines, values ahead:

IC50 [1] [nM]	IC50 [2] [nM]	inhibition at 0.2 µM [3] [%]	IC50 [4] [nM]	SMILES
2.5	25	63	219	C[C@H](NC(=O)c1nc(-c2ccc3ncccc3c2)c(-c2ccccc2)nc1N)c1ccccn1 [compound 75, (S)-3-amino-5-phenyl-N-(1-(pyridin-2-yl)ethyl)-6-(quinolin-6-yl)pyrazine-2-carboxamide]
16	58	–	–	Nc1nc(-c2ccccc2)c(-c2ccc3ncccc3c2)nc1C(=O)NCCC1CCOCC1 [compound 89, 3-amino-5-phenyl-6-(quinolin-6-yl)-N-(2-(tetrahydro-2H-pyran-4-yl)ethyl)pyrazine-2-carboxamide]
1.2	48	94	10	N#Cc1cccc(CNC(=O)c2nc(-c3cc(Cl)c4ncccc4c3)c(-c3ccc(F)cc3)nc2N)n1 [Compound No. 105, 3-amino-6-(8-chloroquinolin-6-yl)-N-((6-cyanopyridin-2-yl)methyl)-5-(4-fluorophenyl)pyrazine-2-carboxamide]
3.7	44	90	5	N#Cc1cccc(-c2nc(N)cnc2-c2cc(Cl)c3ncccc3c2)c1 [Compound No. 2-6, 3-(6-amino-3-(8-chloroquinolin-6-yl)pyrazin-2-yl)benzonitrile]
1.9	143	93	24	CC(NC(=O)c1nc(-c2cc(Cl)c3ncccc3c2)c(-c2ccc(F)cc2)nc1N)c1cccc(C#N)n1 (stereo not shown) [Compound No. 102, 3-amino-6-(8-chloroquinolin-6-yl)-N-(1-(6-cyanopyridin-2-yl)ethyl)-5-(4-fluorophenyl)pyrazine-2-carboxamide]
–	327	30	–	Cc1c(C#N)cccc1-c1nc(N)cnc1-c1cc(Cl)c2ncccc2c1 [2-2, 3-(6-amino-3-(8-chloroquinolin-6-yl)pyrazin-2-yl)-2-methylbenzonitrile]
< 0.6	33	96	–	C[C@H](NC(=O)c1nc(-c2cc(Cl)c3ncccc3c2)c(-c2ccccc2)nc1N)c1cccc(C#N)n1 [Compound No. 122, (S)-3-amino-6-(8-chloroquinolin-6-yl)-N-(1-(6-cyanopyridin-2-yl)ethyl)-5-phenylpyrazine-2-carboxamide]
2.9	75	38	–	C[C@@H](NC(=O)c1nc(-c2ccc3ncccc3c2)c(-c2ccn(C)n2)nc1N)c1ccccn1 [Compound No. 110, (R)-3-amino-5-(1-methyl-1H-pyrazol-3-yl)-N-(1-(pyridin-2-yl)ethyl)-6-(quinolin-6-yl)pyrazine-2-carboxamide]
0.8	18	92	11	N#Cc1cccc(CNC(=O)c2nc(-c3ccc4ncccc4c3)c(-c3ccccc3)nc2N)n1 [compound 98, 3-amino-N-((6-cyanopyridin-2-yl)methyl)-5-phenyl-6-(quinolin-6-yl)pyrazine-2-carboxamide]
